Measured values taken from the supplement of paper PMC10883282.

What was measured:
Assay in all cases: relative viability vs DMSO control (72 h) (fraction); higher = more viable cells
G401 = tested on: G401
How it was run: (§1)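 Sarcoma cell lines were seeded in 384-well plates at densities chosen for 80–90% confluence, then 24 h later given 2.5 µl of serially diluted compound drawn from source plates spanning 10 mM to 0.0002 mM. They were held 72 h at 37 °C, 5% CO2, with 0.1% DMSO vehicle and a 5 µM positive control included. Relative viability was read with ATPLite as percent growth and averaged over up to triplicate wells. Rescaling placed full at 1 and none at 0.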

A204 = tested on: A204
How it was run: as §1

SYO-1 = tested on: SYO-1
How it was run: as §1

SW872 = tested on: SW872
How it was run: as §1

KHOS-NP = tested on: KHOS-NP
How it was run: as §1

MES-SA = tested on: MES-SA
How it was run: as §1

HT1080 = tested on: HT1080
How it was run: as §1

SK-LMS-1 = tested on: SK-LMS-1
How it was run: as §1

HS729 = tested on: HS729
How it was run: as §1

SW684 = tested on: SW684
How it was run: as §1

SW1353 = tested on: SW1353
How it was run: as §1

VA-ES-BJ = tested on: VA-ES-BJ
How it was run: as §1

C[C@@H]1CN(C(=O)c2ccc(NC(=O)c3cc(O[C@H](C)c4c(Cl)ccc(F)c4Cl)c(N)nn3)cc2)C[C@H](C)N1 [Ensartinib]
Conditions	relative viability
A204, 0.00017 µM	1.069
A204, 0.00051 µM	1.07
A204, 0.00152 µM	1.06
A204, 0.00457 µM	1.05
A204, 0.01372 µM	1.05
A204, 0.04115 µM	1.05
A204, 0.1235 µM	1.04
A204, 0.3704 µM	1.06
A204, 1.111 µM	0.98
A204, 3.333 µM	0.806
A204, 10 µM	0.326
G401, 0.00017 µM	0.954
G401, 0.00051 µM	0.983
G401, 0.00152 µM	0.98
G401, 0.00457 µM	0.9873
G401, 0.01372 µM	1.01
G401, 0.04115 µM	1.019
G401, 0.1235 µM	1.05
G401, 0.3704 µM	0.946
G401, 1.111 µM	0.771
G401, 3.333 µM	0.49
G401, 10 µM	0.0293
HS729, 0.00017 µM	0.96
HS729, 0.00051 µM	1.02
HS729, 0.00152 µM	1.03
HS729, 0.00457 µM	1.01
HS729, 0.01372 µM	0.998
HS729, 0.04115 µM	0.986
HS729, 0.1235 µM	0.955
HS729, 0.3704 µM	0.888
HS729, 1.111 µM	0.764
HS729, 3.333 µM	0.594
HS729, 10 µM	0.207
HT1080, 0.00017 µM	1.02
HT1080, 0.00051 µM	1
HT1080, 0.00152 µM	0.993
HT1080, 0.00457 µM	1.03
HT1080, 0.01372 µM	1.03
HT1080, 0.04115 µM	0.9998
HT1080, 0.1235 µM	1.04
HT1080, 0.3704 µM	1.04
HT1080, 1.111 µM	1.02
HT1080, 3.333 µM	0.837
HT1080, 10 µM	0.0183
KHOS-NP, 0.00017 µM	1.02
KHOS-NP, 0.00051 µM	1.04
KHOS-NP, 0.00152 µM	1.03
KHOS-NP, 0.00457 µM	1.03
KHOS-NP, 0.01372 µM	1.04
KHOS-NP, 0.04115 µM	1.03
KHOS-NP, 0.1235 µM	1.03
KHOS-NP, 0.3704 µM	1.03
KHOS-NP, 1.111 µM	1.02
KHOS-NP, 3.333 µM	0.987
KHOS-NP, 10 µM	0.422
MES-SA, 0.00017 µM	0.921
MES-SA, 0.00051 µM	0.896
MES-SA, 0.00152 µM	0.938
MES-SA, 0.00457 µM	0.929
MES-SA, 0.01372 µM	0.932
MES-SA, 0.04115 µM	0.926
MES-SA, 0.1235 µM	0.961
MES-SA, 0.3704 µM	0.933
MES-SA, 1.111 µM	0.498
MES-SA, 3.333 µM	0.296
MES-SA, 10 µM	0.1
SK-LMS-1, 0.00017 µM	0.995
SK-LMS-1, 0.00051 µM	0.9982
SK-LMS-1, 0.00152 µM	1.01
SK-LMS-1, 0.00457 µM	1.04
SK-LMS-1, 0.01372 µM	1.03
SK-LMS-1, 0.04115 µM	1.02
SK-LMS-1, 0.1235 µM	1.01
SK-LMS-1, 0.3704 µM	0.83
SK-LMS-1, 1.111 µM	0.656
SK-LMS-1, 3.333 µM	0.53
SK-LMS-1, 10 µM	0.0598
SW684, 0.00017 µM	1.05
SW684, 0.00051 µM	1.02
SW684, 0.00152 µM	1.08
SW684, 0.00457 µM	1.06
SW684, 0.01372 µM	1.06
SW684, 0.04115 µM	1.07
SW684, 0.1235 µM	1.06
SW684, 0.3704 µM	1.05
SW684, 1.111 µM	0.971
SW684, 3.333 µM	0.829
SW684, 10 µM	0.113
SW872, 0.00017 µM	1.02
SW872, 0.00051 µM	1.03
SW872, 0.00152 µM	1.04
SW872, 0.00457 µM	1.05
SW872, 0.01372 µM	1.06
SW872, 0.04115 µM	1.04
SW872, 0.1235 µM	1.03
SW872, 0.3704 µM	1.01
SW872, 1.111 µM	0.835
SW872, 3.333 µM	0.583
SW872, 10 µM	0.188
SW1353, 0.00017 µM	0.959
SW1353, 0.00051 µM	0.938
SW1353, 0.00152 µM	0.985
SW1353, 0.00457 µM	0.956
SW1353, 0.01372 µM	0.955
SW1353, 0.04115 µM	0.969
SW1353, 0.1235 µM	0.957
SW1353, 0.3704 µM	0.966
SW1353, 1.111 µM	0.955
SW1353, 3.333 µM	0.77
SW1353, 10 µM	0.0145
SYO-1, 0.00017 µM	1.02
SYO-1, 0.00051 µM	1.01
SYO-1, 0.00152 µM	1
SYO-1, 0.00457 µM	0.997
SYO-1, 0.01372 µM	1.02
SYO-1, 0.04115 µM	0.981
SYO-1, 0.1235 µM	0.927
SYO-1, 0.3704 µM	0.91
SYO-1, 1.111 µM	0.6316
SYO-1, 3.333 µM	0.175
SYO-1, 10 µM	-0.0432
VA-ES-BJ, 0.00017 µM	1.05
VA-ES-BJ, 0.00051 µM	1.02
VA-ES-BJ, 0.00152 µM	1.03
VA-ES-BJ, 0.00457 µM	1.03
VA-ES-BJ, 0.01372 µM	1.06
VA-ES-BJ, 0.04115 µM	1.05
VA-ES-BJ, 0.1235 µM	1.02
VA-ES-BJ, 0.3704 µM	0.855
VA-ES-BJ, 1.111 µM	0.662
VA-ES-BJ, 3.333 µM	0.489
VA-ES-BJ, 10 µM	0.362
